Assay results taken from patent publication US20230096028A1, “BICYCLIC HETEROCYCLYL COMPOUNDS AND USES THEREOF” (Revolution Medicines, Inc., priority 2019, published 2023).
Where a name gives a salt, the structure may show the parent alone. Read-outs that look alike come from different tables or passages of the source.

Tests used:
[1] = biological target: T1, SOS1 catalytic domain (residues 564-1049) (Homo sapiens, UniProt Q07889); assay: Potency Assay: binding affinity to SOS1 using Surface Plasmon Resonance (SPR); parameters: SOS1 catalytic domain (residues 564-1049) immobilized on a sensor chip; settings: immobilized SOS1 catalytic domain (residues 564-1049), read-out: SOS1 SPR Equilibrium Kd
T1 sequence (Q07889 564-1049): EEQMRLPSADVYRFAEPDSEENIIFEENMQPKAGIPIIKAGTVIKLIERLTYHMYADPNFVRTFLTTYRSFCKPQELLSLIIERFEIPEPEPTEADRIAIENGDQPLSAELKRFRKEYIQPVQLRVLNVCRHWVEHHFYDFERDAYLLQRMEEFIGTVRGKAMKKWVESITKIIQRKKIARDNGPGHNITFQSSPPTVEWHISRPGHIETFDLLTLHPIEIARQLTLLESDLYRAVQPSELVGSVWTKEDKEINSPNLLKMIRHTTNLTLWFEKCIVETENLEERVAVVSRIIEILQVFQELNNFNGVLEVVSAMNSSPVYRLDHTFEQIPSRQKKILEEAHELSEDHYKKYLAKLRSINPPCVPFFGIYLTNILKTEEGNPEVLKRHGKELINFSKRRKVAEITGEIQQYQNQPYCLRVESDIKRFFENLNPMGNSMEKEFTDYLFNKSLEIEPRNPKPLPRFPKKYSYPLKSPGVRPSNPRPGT
How it was run: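 Avi-tagged SOS1 catalytic domain captured on streptavidin chip (~6000 RU) in 0.01 M HEPES, 0.15 M NaCl, 0.05% P20. Compound dilution series flowed at 50 μL/min for association, then buffer for dissociation, with double reference subtraction. Kd derived from end-of-association binding response plotted against concentration.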

[2] = biological target: T1, SOS1 catalytic domain (residues 564-1049); assay: Mode of Action Assay: inhibition of SOS1 nucleotide exchange activity (SOS1 TR-FRET IC50 Assay)
[3] = test system: PC-9 cells (EGFR Ex19Del); assay: Potency Assay: pERK (SOS1 pERK IC50 Assay, AlphaLISA SureFire Ultra p-ERK1/2); type: cell-based; settings: Homo sapiens, read-out: SOS1 pERK IC50
How it was run: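 PC-9 (EGFR Ex19Del) cells plated overnight, then treated 1 h at 37° C. with 10-point 3-fold dilutions (top 10 μM final) in duplicate. Lysate pERK1/2 measured by AlphaLISA SureFire Ultra; IC50 from 4-parameter sigmoidal fit.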

[4] = PC-9 cells (EGFR Ex19Del), 1 hour incubation, AlphaLISA p-ERK1/2

SMILES	Kd [1] [nM]	IC50 [2] [nM]	IC50 [3, 4] [nM]	IC50 ([3]; PC-9, 1 h) [nM]
C[C@@H](Nc1nc(Cl)nc2c1CN(C(=O)C1(C)CCNCC1)C2)c1cccc(C(F)(F)F)c1 [Example 314]	< 400	< 1000	> 1000	–
C[C@@H](Nc1nc(Cl)nc2c1CN(C(=O)N1CCOCC1)C2)c1cccc(CF)c1F [Example 527, 2-chloro-N-[(1R)-1-[2-fluoro-3-(fluoromethyl)phenyl]ethyl]-6-(morpholine-4-carbonyl)-5H,6H,7H-pyrrolo[3,4-d]pyrimidin-4-amine]	< 400	< 1000	> 1000	–
C[C@@H](Nc1nc(Cl)nc2c1CN(C(=O)c1nccnn1)CC2)c1cc(N)cc(C(F)(F)F)c1 [Example 248]	> 400	> 1000	> 1000	–
C[C@@H](Nc1nc(Cl)nc2c1CN(C(=O)N1C3CC1CN(C1COC1)C3)C2)c1cccc(C(F)F)c1F [Example 422]	< 400	< 1000	< 1000	–
C[C@@H](Nc1nc(Cl)nc2c1CN(S(=O)(=O)C1CC1)CC2)c1cc(N)cc(C(F)(F)F)c1 [Example 452]	< 400	< 1000	< 1000	–
COC1(C(=O)N2Cc3nc(Cl)nc(N[C@H](C)c4cccc(C(F)(F)CN)c4)c3C2)CCOCC1 [Example 525, N-[(1R)-1-[3-(2-amino-1,1-difluoroethyl)phenyl]ethyl]-2-chloro-6-(4-methoxyoxane-4-carbonyl)-5H,6H,7H-pyrrolo[3,4-d]pyrimidin-4-amine]	< 400	< 1000	< 1000	–
C[C@@H](Nc1nc(Cl)nc2c1CN(C(=O)C1(C#N)CCN(C)CC1)C2)c1cccc(C(F)(F)F)c1 [Example 280]	< 400	< 1000	< 1000	–
C[C@@H](Nc1nc(Cl)nc2c1CN(C(=O)C1(C#N)CCN(C)CC1)C2)c1cccc(C(F)F)c1F [Example 299]	< 400	< 1000	< 1000	–
C[C@@H](Nc1nc(Cl)nc2c1CN(C(=O)N1CCNCC13COC3)C2)c1cccc(C(F)F)c1F [Example 405]	< 400	< 1000	> 1000	–
C[C@@H](Nc1nc(Cl)nc2c1CN(C(=O)C1(F)CCNCC1)C2)c1cccc(C(F)F)c1F [Example 284]	< 400	< 1000	< 1000	–
COC1(C(=O)N2Cc3nc(Cl)nc(N[C@H](C)c4cccc(C(F)(F)CO)c4)c3C2)CCOCC1 [Example 167, [2-chloro-4-[[(1R)-1-[3-(1,1-difluoro-2-hydroxy-ethyl)phenyl]ethyl]amino]-5,7-dihydropyrrolo[3,4-d]pyrimidin-6-yl]-(4-methoxytetrahydropyran-4-yl)methanone]	< 400	< 1000	< 1000	–
CC(=O)N1Cc2nc(C)nc(N[C@H](C)c3cc(N)cc(C(F)(F)F)c3)c2C1 [Example 120, 1-(4-{[(1R)-1-[3-amino-5-(trifluoromethyl)phenyl]ethyl]amino}-2-methyl-5H,6H,7H-pyrrolo[3,4-d]pyrimidin-6-yl)ethan-1-one]	> 400	> 1000	> 1000	–
C[C@@H](Nc1nc(Cl)nc2c1C[N+](=C(N(C)C)N(C)C)C2)c1cccc(C(F)F)c1F [Example 529, 1-[2-chloro-4-[[(1R)-1-[3-(difluoromethyl)-2-fluoro-phenyl]ethyl]amino]-5,7-dihydropyrrolo[3,4-d]pyrimidin-6-ium-6-ylidene]-N,N,N′,N′-tetramethyl-methanediamine formate]	< 400	< 1000	–	> 1000
C[C@@H](Nc1nc(Cl)nc2c1CN(C(=O)C1(C#N)CNC1)C2)c1cccc(C(F)F)c1F [Example 328]	< 400	< 1000	< 1000	–
C[C@@H](Nc1nc(Cl)nc2c1CN(C(=O)CN1CCN(C)CC1)C2)c1cccc(C(F)F)c1F [Example 283]	< 400	< 1000	< 1000	–
C[C@@H](Nc1nc(Cl)nc2c1CN(C(=O)c1ccncn1)CC2)c1cc(N)cc(C(F)(F)F)c1 [Example 233]	> 400	> 1000	> 1000	–
C[C@@H](Nc1nc(Cl)nc2c1CN(S(=O)(=O)N1CCOCC1)CC2)c1cc(N)cc(C(F)(F)F)c1 [Example 29, N-[(1R)-1-[3-amino-5-(trifluoromethyl)phenyl]ethyl]-2-chloro-6-morpholinosulfonyl-7,8-dihydro-5H-pyrido[4,3-d]pyrimidin-4-amine]	< 400	< 1000	< 1000	–
C[C@@H](Nc1nc(Cl)nc2c1CN(C(=O)C1CN(C3CCOC3)C1)C2)c1cccc(C(F)F)c1F (stereo partly drawn) [Example 295]	< 400	< 1000	< 1000	–
C[C@@H](Nc1nc(Cl)nc2c1CN(C(=O)N1C[C@H]3CNCC[C@H]3C1)C2)c1cccc(C(F)(F)F)c1 [Example 378]	< 400	< 1000	> 1000	–
C[C@@H](Nc1nc(Cl)nc2c1CN(C(=O)CC1COCCN1C)C2)c1cccc(C(F)F)c1F (stereo partly drawn) [Example 322]	< 400	< 1000	< 1000	–
COC1(C(=O)N2Cc3nc(CN)nc(N[C@H](C)c4cccc(C(F)(F)F)c4)c3C2)CCOCC1 [Example 350, (R)-(2-(aminomethyl)-4-((1-(3-(trifluoromethyl)phenyl)ethyl)amino)-5,7-dihydro-6H-pyrrolo[3,4-d]pyrimidin-6-yl)(4-methoxytetrahydro-2H-pyran-4-yl)methanone]	< 400	< 1000	< 1000	–
C[C@@H](Nc1nc(Cl)nc2c1CN(C(=O)N1CC3CCC(C1)N3)C2)c1cccc(C(F)F)c1F [Example 388]	< 400	< 1000	< 1000	–
C[C@@H](Nc1nc(C2CNC2)nc2c1CN(C(=O)N1CCOCC1)C2)c1cccc(C(F)F)c1F [Example 446, [2-(azetidin-3-yl)-4-[[(1R)-1-[3-(difluoromethyl)-2-fluoro-phenyl]ethyl]amino]-5,7-dihydropyrrolo[3,4-d]pyrimidin-6-yl]-morpholino-methanone]	< 400	< 1000	> 1000	–
C[C@@H](Nc1nc(Cl)nc2c1CN(C(=O)N1CCNc3ccncc31)C2)c1cccc(C(F)(F)F)c1 [Example 375]	< 400	< 1000	< 1000	–
C[C@@H](Nc1nc(Cl)nc2c1C[C@@H](N1CCOCC1)CC2)c1cccc(C(F)F)c1F [Example 440]	< 400	< 1000	< 1000	–
C[C@@H](Nc1nc(Cl)nc2c1CN(C(=O)C1COCCN1)C2)c1cccc(C(F)(F)F)c1 (stereo partly drawn) [Example 276]	> 400	< 1000	> 1000	–
C[C@@H](Nc1nc(Cl)nc2c1CN(C(=O)c1ccc(N3CCOCC3)cn1)CC2)c1cc(N)cc(C(F)(F)F)c1 [Example 254]	> 400	> 1000	> 1000	–
C[C@@H](Nc1nc(Cl)nc2c1CN(C(=O)C1CN(C)CCO1)C2)c1cccc(C(F)F)c1F (stereo partly drawn) [Example 298]	< 400	< 1000	> 1000	–
CNC1(C(=O)N2Cc3nc(Cl)nc(N[C@H](C)c4cccc(C(F)F)c4F)c3C2)CCOC1 (stereo partly drawn) [Example 334]	< 400	< 1000	< 1000	–
